Read-outs that look alike come from different tables or passages of the source.
What was measured:
[1] = tested on: human abdominal skin explants; assay: Cutaneous distribution and mass balance of radioactivity in human skin explants; conditions: human skin; for % Radioactivity in culture media after 24 h / Mass balance (% of applied dose at end of incubation): 24 h; for Medium radioactivity / Skin radioactivity / Skin surface radioactivity: end of incubation (24 h), mean ± SD
Experimental: (§1) Human abdominal skin was obtained (with consent for research from a commercial supplier [L’Union Clinic, Rangueil hospital and Icelltis, Toulouse, France] with certified ethical procedures) from six male and 34 female healthy donors, 41 ± 11 years of age, undergoing cosmetic surgery. Abdominal skin was kept at 4°C during transports and placed in culture within 3 hours of surgery. Pig ear skin was a waste product of the meat industry (without hot steam treatment) from domestic pigs (female Pietrain breed, 6 months old, 80‐100 kg) obtained from a local slaughterhouse (Montauban, France). Ears were taken from the animals within 5 minutes of slaughter and were kept at 4°C during transport to the laboratory, which lasted a maximum of 2 hours. Pig skin samples were dried and then gently shaved.
(§2) The experiment and the preparation of the culture medium were performed under sterile conditions. Human and pig skin was cut with a dermatome to a thickness of 450 ± 50 μm. Skin punches were seeded dermal side down in polycarbonate Transwell® inserts from Corning Life Sciences (Avon, France; 4.16 cm^2 application area with an 8 μm pore size filter). […] The inserts were placed in a six‐well plate containing 1.5 mL culture medium and the skin explants incubated in a standard incubator at 37°C, under an atmosphere of 5% CO2 and 50 ± 10% relative humidity. The culture medium was Dulbecco's modified Eagle medium without phenol red supplemented with 8 mM L‐glutamine, 2 μg/mL streptomycin/penicillin, 25 ng/mL fungizone and 50 ng/mL gentamycin. Skin explants were incubated for 1 hour before application of the formulation.
(§3) The dosing volume was 10 μL/cm^2. For pig skin metabolism studies, which were carried out before the human skin experiments to ensure the analytics were optimal, 2.4 nmol/cm^2 of each chemical (only the ^14C‐labeled form) was applied on the skin and incubated for 24 hours for the measurement of metabolites in the medium. These tissues were further incubated for a total of 48 hours, with a replacement of the culture medium after 24 hours. This longer incubation time and the standard doses of 2.4 nmol/cm^2 were used to maximize the likelihood of the skin forming metabolites to develop analytical methods. The metabolites profiles in pig and human skin were compared in the medium sample at 24 hours of incubation. The metabolite profiles for the 48‐hour timepoint are not reported here since humans skin metabolism was measured at 24 hours only; however, for completeness, the distribution of radioactivity at the end of both pig (48 hours) and human (24 hours) skin incubations is reported. […] The doses were obtained by mixing radiolabeled and cold chemical. One replicate disc per donor and per dose was used. All chemicals were tested on four donors of pig and human skin, except for 2‐AAF and 4‐amino‐3‐nitrophenol (4‐A‐3‐NP), for which three donors were used. The medium was removed after 24 hours of incubation and stored at −20°C for analysis.
(§4) At the end of the experiment, the trans‐wells were dismantled and washed with appropriate solvent for each chemical. […] The cotton swabs were placed in 5 mL of appropriate solvent in a scintillation counting flask and placed in a sonicator bath for 20 minutes. Aliquots of 1 mL were counted by liquid scintillation, after addition of 15 mL of scintillation liquid. Tissue culture inserts were washed with 10 mL of appropriate solvent. One aliquot of 1 mL was counted by liquid scintillation, after addition of 15 mL of scintillation liquid. After media removal, wells were washed twice with 1 mL of the appropriate solvent. Washing solutions were counted by liquid scintillation, after addition of 15 mL of scintillation liquid.
(§5) Pig skin explants were digested using 3 mL Soluable (60°C for 24 hours) and counted by liquid scintillation. Skin extraction process was adapted according to the physicochemical properties of each chemical and its potential metabolites.

[2] = ref Chemspider (www.chemspider.com), cited from earlier work
[3] = tested on: pig ear skin explants; assay: Cutaneous distribution and mass balance of radioactivity in pig skin explants; conditions: pig skin; for % Radioactivity in culture media after 24 h / Mass balance (% of applied dose at end of incubation): 2.4 nmol/cm^2; for Mass balance (% of applied dose at end of incubation): 48 h; for Medium radioactivity / Skin radioactivity / Skin surface radioactivity: end of incubation (48 h), mean ± SD
Experimental: as §1, §2, §3, §4, §5

[4] = tested on: human abdominal skin explants
Experimental: as §1, §2, §3
(§6) After centrifugation, a 100 μL aliquot of the extract was counted by liquid scintillation. The pellet was dissolved in 3 mL Soluable (60°C, 24 hours) and then counted by liquid scintillation.
(§7) Analysis of the chemicals and their metabolites in medium after 24 hours of incubation with pig and human skin was measured by radio‐high‐performance liquid chromatography (HPLC) using an HPLC 1100 Series, Agilent and a Flow Scintillation Analyzer, Radiomatic 610 TR, Perkin Elmer (Villebon‐sur‐Yvette, France). […] To confirm that metabolites were the same in pig and human skin, medium samples were co‐injected on the new column. The metabolites were identified by LC‐electrospray ionization‐HRMS (HPLC‐ESI‐HRMS) with a RSLC3000 HPLC system coupled to a LTQ‐Orbitrap XL mass spectrometer (Thermo Scientific). The HPLC analytical conditions for identification and quantification of the metabolites for each chemical are summarized in Supporting information Table S1.

[5] = tested on: pig ear skin explants; conditions: pig skin; for Number of metabolites detected in the culture medium / Parent compound in the medium after 24 h: 24 h; for Parent compound in the medium after 24 h: mean ± SEM
Experimental: as §1, §2, §3, §6, §7

SMILES	% Radioactivity in culture media after 24 h [1] [%]	Mass balance (% of applied dose at end of incubation) [1]	Medium radioactivity [1]	Skin radioactivity [1]	Skin surface radioactivity [1]	LogP [2]	Maximum water solubility [2] [µg/mL]	% Radioactivity in culture media after 24 h [3] [%]	Mass balance (% of applied dose at end of incubation) [3]	Medium radioactivity [3]	Skin radioactivity [3]	Skin surface radioactivity [3]	Parent compound in the medium after 24 h ([4]; both, human, 24 h) [% Applied dose]	Total metabolites in the medium after 24 h ([4]; both, human, 24 h) [% Applied dose]	Number of metabolites detected in the culture medium [5]	Parent compound in the medium after 24 h [5] [% Applied dose]	Number of metabolites detected in the culture medium ([4]; human skin, 24 h)	Parent compound in the medium after 24 h ([4]; human skin, 24 h, mean ± SEM) [% Applied dose]	other results
CC(=O)Nc1ccc2c(c1)Cc1ccccc1-2 [2‐AAF, 2‐acetyl aminofluorene]	48.3 ± 4.2	91.6 ± 4.5 % of applied dose	48.3 ± 4.2 % of the applied dose	40.5 ± 5.5 % of the applied dose	2.8 ± 0.3 % of the applied dose	3.10	4	52.8 ± 2.3	87.8 ± 1.1 % of applied dose	73.9 ± 1.1 % of the applied dose	12.6 ± 1.5 % of the applied dose	1.4 ± 0.4 % of the applied dose	–	–	–	–	–	–	Maximum solubility in ethanol ([2]; in ethanol): 9600 µg/mL
COc1cc(C=O)ccc1O [Vanillin]	60.0 ± 7.8	104.4 ± 6.0 % of applied dose	60.0 ± 7.8 % of the applied dose	–	–	–	8500	58.6 ± 5.2	90.7 ± 1.7 % of applied dose	77.4 ± 5.1 % of the applied dose	–	–	0.3 ± 0.09	51.1 ± 2.3	Six	0.1 ± 0.04	–	–	–
OCC=Cc1ccccc1 [Cinnamyl alcohol]	83.5 ± 4.8	99.9 ± 5.8 % of applied dose	83.5 ± 4.8 % of the applied dose	16.2 ± 3.2 % of the applied dose	0.2 ± 0.1 % of the applied dose	1.95	4000	63.2 ± 1.9	96.8 ± 1.9 % of applied dose	87.1 ± 2.7 % of the applied dose	8.5 ± 0.8 % of the applied dose	1.2 ± 1.1 % of the applied dose	–	–	–	0.0	eight	0.2 ± 0.03	–
Oc1cccc(O)c1 [Resorcinol]	–	94.2 ± 3.5 % of applied dose	54.4 ± 1.5 % of the applied dose	–	–	0.80	–	58.6 ± 7.6	92.7 ± 5.92 % of applied dose	71.0 ± 7.1 % of the applied dose	–	–	4.8 ± 0.7	41.9 ± 0.6	–	1.8 ± 0.8	–	–	Glucuronide conjugate as share of the total metabolites observed ([4]; both, human, 24 h): > 78 % of the total metabolites; Sulfate conjugate as share of the total metabolites ([4]; both, human, 24 h): 19 % of the total metabolites
CCOc1ccc2ccc(=O)oc2c1 [7‐EC, 7‐ethoxycoumarin]	–	91.9 ± 3.8 % of applied dose	66.7 ± 3.5 % of the applied dose	24.1 ± 6.2 % of the applied dose	1.4 ± 0.2 % of the applied dose	2.30	780	62.5 ± 2.7	100.0 ± 3.8 % of applied dose	89.7 ± 3.4 % of the applied dose	9.3 ± 0.4 % of the applied dose	1.0 ± 0.1 % of the applied dose	–	–	three	60.8 ± 0.6	three	57.7 ± 3.1	–
Cn1c(N)nc2c3cccnc3ccc21 [IQ, 2‐amino‐3‐methylimidazo[4,5‐f]quinoline]	10.5 ± 13.4	94.5 ± 10.6 % of applied dose	10.5 ± 13.4 % of the applied dose	66.0 ± 12.3 % of the applied dose	17.9 ± 3.7 % of the applied dose	1.47	530	30.1 ± 2.3	96.3 ± 6.6 % of applied dose	54.8 ± 8.3 % of the applied dose	33.6 ± 5.1 % of the applied dose	7.8 ± 3.9 % of the applied dose	–	–	–	–	–	–	Metabolites detected in the skin or culture media ([4]; human skin): no metabolites were detected; Metabolites detected in the skin or culture media [5]: no metabolites were detected
